Patent US20160067331A1 (priority 2013, published 2016)

Tests used:
Lck = Lck (Homo sapiens, UniProt P06239); type: biochemical
[1] = tested on: T cell receptor (TCR) signaling; type: cell-based, human

Lck, sequence (P06239 whole entry): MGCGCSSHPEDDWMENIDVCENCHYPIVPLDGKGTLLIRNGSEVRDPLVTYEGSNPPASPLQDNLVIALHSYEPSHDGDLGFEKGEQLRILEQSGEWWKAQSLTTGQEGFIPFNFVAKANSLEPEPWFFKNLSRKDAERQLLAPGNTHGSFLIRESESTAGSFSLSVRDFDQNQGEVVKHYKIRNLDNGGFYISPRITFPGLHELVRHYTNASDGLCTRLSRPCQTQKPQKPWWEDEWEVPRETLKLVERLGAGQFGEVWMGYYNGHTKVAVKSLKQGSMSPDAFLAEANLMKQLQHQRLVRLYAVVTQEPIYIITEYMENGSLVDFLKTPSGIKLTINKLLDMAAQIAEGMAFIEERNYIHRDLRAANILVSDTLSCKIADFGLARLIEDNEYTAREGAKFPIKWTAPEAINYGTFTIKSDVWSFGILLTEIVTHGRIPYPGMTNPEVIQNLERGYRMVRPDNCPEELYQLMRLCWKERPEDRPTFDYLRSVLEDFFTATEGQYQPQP

Sequence	Lck-mediated phosphorylation of synthetic peptide (Lck)	IL-2 production by PBMCs following TCR stimulation [1]	surface expression of T cell activation marker CD25 [1]	surface expression of T cell activation marker CD69 [1]
GGAGLTGGRYEPLVRRC [TAT-276-292]	served as an in vitro Lck substrate	–	–	–
GGGGGRKKRRQRRRVYGSVSVTCVWGS [TAT-Y87]	phosphorylated by Lck in a dose-dependent manner	inhibited	significantly reduced	significantly reduced
